The values that follow come from EP0076622A1, “Anthelmintics” (BEECHAM GROUP PLC, priority 1981, dated 1983).

For the experiment, the system named is Nematospiroides dubius. Kind of experiment: Oral activity against experimental infections of Nematospiroides dubius in the mouse (worm numbers of treated vs untreated control animals). The format is in vivo. The note with it: calculated from worm numbers of treated and control animals; for inhibition in vivo at 200 mg/kg / inhibition in vivo at 100 mg/kg: Heligmosomoides polygyrus, po. On the procedure: The oral activity of the following compounds, against experimental infections of Nematospiroides dubius in the mouse, was calculated from a comparison of the worm numbers of treated and control (untreated) animals.

In the case of `CSC(=Nc1cccc(C2CN3CCSC3=N2)c1)Nc1ccccc1` (stereo not shown) [Example 13], under “Dose 200 mg/kg (p.o.)”, the inhibition in vivo at 200 mg/kg was 99%.

With `CSC(=Nc1cccc(C2CN3CCSC3=N2)c1)Nc1ccc(F)cc1` (stereo not shown) [Example 14, S-Methyl-N-[4-fluorophenyl]-N'-[3-(6-{2,3,5,6-tetra-hydroimidazo [2,1-b]thiazolyl})phenyl]isothiourea], the inhibition in vivo at 200 mg/kg (Dose 200 mg/kg (p.o.)) was 100%.

Regarding `CSC(=Nc1cccc(C2CN3CCSC3=N2)c1)Nc1cccc(F)c1` (stereo not shown) [Example 15, S-Methyl-N-[3-fluorophenyl]-N'-[3-(6-{2,3,5,6-tetra-hydroimidazo[2,1-b]thiazolyl})phenyl]isothiourea], the inhibition in vivo at 100 mg/kg (Dose 100 mg/kg (p.o.)) is 100%. The inhibition in vivo at 200 mg/kg (Dose 200 mg/kg (p.o.)) is 100%.

In the case of `CSC(=Nc1cccc(C2CN3CCSC3=N2)c1)Nc1ccc(Cl)cc1` (stereo not shown) [Example 17, S-Methyl-N-[4-chlorophenyl]-N'-[3-(6-{2,3,5,6-tetra-hydroimidazo[2,1-b]thiazolyl})phenyl]isothiourea], where the note is “Dose 200 mg/kg (p.o.)”, the inhibition in vivo at 200 mg/kg was 88%.

For the compound `CSC(=Nc1cccc(C2CN3CCSC3=N2)c1)Nc1ccc(C)cc1` (stereo not shown) [Example 19, S-Methyl-N-[4-methylphe_nyl]-N'-[3-(6-{2,3,5,6-tetra-hydroimidazo[2,1-b]thiazolyl})phenyl]isothiourea], under “Dose 200 mg/kg (p.o.)”, the inhibition in vivo at 200 mg/kg was 0%.

`CSC(=Nc1cccc(C2CN3CCSC3=N2)c1)Nc1cccc(Cl)c1` (stereo not shown) [Example 20]: under “Dose 100 mg/kg (p.o.)”, the inhibition in vivo at 100 mg/kg was 87%. The inhibition in vivo at 200 mg/kg (Dose 200 mg/kg (p.o.)) is 100%.

For `CCSC(=Nc1cccc(C2CN3CCSC3=N2)c1)Nc1ccccc1` (stereo not shown) [Example 22, S-Ethyl-N-phenyl-N'-[3-(6{2,3,5,6-tetrahydroimidazo-[2,1-b]thiazolyl})phenyl]isothiourea], the inhibition in vivo at 200 mg/kg (Dose 200 mg/kg (p.o.)) was 92%.

Consider `CSC(=Nc1cccc(C2CN3CCSC3=N2)c1)Nc1ccc(C)c(C)c1` (stereo not shown) [Example 56], for which the inhibition in vivo at 200 mg/kg (Dose 200 mg/kg (p.o.)) was 0%.

`CSC(=Nc1cccc(C2CN3CCSC3=N2)c1)Nc1cccc(C)c1` (stereo not shown) [Example 57]: for the setting “Dose 100 mg/kg (p.o.)”, the inhibition in vivo at 100 mg/kg was 40%. Besides, under “Dose 200 mg/kg (p.o.)”, the inhibition in vivo at 200 mg/kg was 100%.

Take `CSC(=Nc1cccc(C2CN3CCSC3=N2)c1)Nc1cccc([N+](=O)[O-])c1` (stereo not shown) [Example 58]: for the setting “Dose 100 mg/kg (p.o.)”, the inhibition in vivo at 100 mg/kg is 95%. The inhibition in vivo at 200 mg/kg (Dose 200 mg/kg (p.o.)) is 95%.

As to `CSC(=Nc1cccc(C2CN3CCSC3=N2)c1)NCc1ccccc1` (stereo not shown) [Example 75], the inhibition in vivo at 200 mg/kg (Dose 200 mg/kg (p.o.)) is 54%.

On to `CSC(=Nc1cccc(C2CN3CCSC3=N2)c1)NC1CCCCC1` (stereo not shown) [Example 76], for which the inhibition in vivo at 200 mg/kg (Dose 200 mg/kg (p.o.)) was 15%.

On to `COc1ccc(NC(=Nc2cccc(C3CN4CCSC4=N3)c2)SC)cc1` (stereo not shown) [p-C6H4OCH3], for which the inhibition in vivo at 200 mg/kg (Dose 200 mg/kg (p.o.)) was 59%.

As for “S-Methyl-N-[3,4-dichlorophenyl]-N'-[3-(6{2,3,5,6-tetra- hydroimidazo[2,1-b]thiazolyl}) phenyl]isothiourea [Example 18]”, the Activity % (Dose 200 mg/kg (p.o.)) is 34%.

With “S-Methyl-N-[4-acetylphenyl]-N'-[3-(6-{2,3,5,6-tetra- hydroimidazo-[2,1-b]thiazolyl})phenyl]isothiourea [Example 25]”, the Activity % (Dose 100 mg/kg (p.o.)) is listed as 93% and the Activity % (Dose 200 mg/kg (p.o.)) is reported as 100%.

Regarding “S-Methyl-N-[4-cyanophenyl]-N'-[3-(6-{2,3.5,6-tetra- hydroimidazo[2,1-b]thiazolyl})phenyl]isothiourea [Example 24]”, the Activity % (Dose 100 mg/kg (p.o.)) was 99% and the Activity % (Dose 200 mg/kg (p.o.)) is listed as 100%.

Consider “S-Methyl-N-[4-nitrophenyl]-N'-[3-(6-{2,3,5,6-tetra- hydroimidaza[2,1-b]thiazolyl})phenyl]isothiourea [Example 16]”, for which the Activity % is, setting by setting: (Dose 50 mg/kg (p.o.)) 95%; (Dose 100 mg/kg (p.o.)) 100%; (Dose 200 mg/kg (p.o.)) 100%.

By inhibition in vivo is commonly meant the percentage by which the read-out fell short of the control.
